# Reference: paper PMC12093056, “Mechanistic insights into the ATP-mediated and species-dependent inhibition of TrpRS by chuangxinmycin” (RSC Chemical Biology, 2025)
# Experiments:
# EcTrpRS [1] = biological target: T1, EcTrpRS (Escherichia coli, UniProt P00954); assay: X-ray crystal structure; assay type: binding
# T1 construct: gene trpS; C-terminal 6xHis tag (pET-28a), no tag cleavage told; E. coli BL21(DE3); two chains in asymmetric unit
# SaTrpRS [2] = biological target: T2, SaTrpRS (Staphylococcus aureus, UniProt P67594); assay: X-ray crystal structure; assay type: binding; settings: Trp site
# T2 construct: gene trpS; codon-optimised synthetic gene, C-terminal 6xHis tag (pET-28a), no tag cleavage told; E. coli BL21(DE3); dimer
# T2 sequence (P67594 whole entry): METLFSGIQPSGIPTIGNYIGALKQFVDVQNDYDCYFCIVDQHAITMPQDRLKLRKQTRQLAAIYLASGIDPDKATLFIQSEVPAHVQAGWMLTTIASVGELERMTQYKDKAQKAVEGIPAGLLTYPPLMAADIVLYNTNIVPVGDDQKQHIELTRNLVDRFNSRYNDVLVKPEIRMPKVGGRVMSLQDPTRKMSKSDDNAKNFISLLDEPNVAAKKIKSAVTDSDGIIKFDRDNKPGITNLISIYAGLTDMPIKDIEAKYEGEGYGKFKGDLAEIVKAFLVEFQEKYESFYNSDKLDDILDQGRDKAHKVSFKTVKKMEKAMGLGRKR
# EcTrpRS [3] = biological target: T1, EcTrpRS; assay: ATP consumption, Kinase-Glo luminescence; assay type: biochemical; settings: 2 μM ATP, 10 μM Trp, 40 mM MgCl2, 50 mM NH2OH instead of tRNA, pH 7.5, 37 °C; Trp site
# SaTrpRS [4] = biological target: T2, SaTrpRS; assay: ATP consumption, Kinase-Glo luminescence; assay type: biochemical; settings: 2 μM ATP, 10 μM Trp, 40 mM MgCl2, 50 mM NH2OH instead of tRNA, pH 7.5, 37 °C, 1.5 h
# SaTrpRS [5] = biological target: T2, SaTrpRS; assay: ATP consumption, Kinase-Glo luminescence; assay type: biochemical; settings: 2 μM ATP, 10 μM Trp, 40 mM MgCl2, 50 mM NH2OH instead of tRNA, pH 7.5, 37 °C; Trp site
smiles,measurement,setting,value
Nc1ncnc2c1ncn2[C@@H]1O[C@H](COP(=O)(O)OC(=O)[C@@H](N)Cc2c[nH]c3ccccc23)[C@@H](O)[C@H]1O [tryptophanyl-5′-AMP],X-ray crystal structure,"EcTrpRS [1]; 2.24 Å, endogenous, closed chain B, enzyme-bound reaction intermediate",chain B is in a closed state and binds to an endogenous tryptophanyl-5′-AMP (TrpAMP) molecule
N[C@@H](Cc1c[nH]c2ccccc12)C(=O)O [tryptophan],X-ray crystal structure,SaTrpRS [2]; 2.32 Å,SaTrpRS in complex with Trp (SaTrpRS/Trp complex)
"O=C(O)C1Cc2c[nH]c3cccc(c23)S1 (centres unmarked) [dCXM, 3-demethylchuangxinmycin]",X-ray crystal structure,EcTrpRS [1]; Trp site,The complex structures of these analogues with EcTrpRS and SaTrpRS were solved.
same,inhibition,EcTrpRS [3],"Inhibition of EcTrpRS by CXM, dCXM, and mCXM, as measured by ATP hydrolysis assays"
Nc1ncnc2c1ncn2[C@@H]1O[C@H](COP(=O)(O)OP(=O)(O)OP(=O)(O)O)[C@@H](O)[C@H]1O [ATP],"ATP consumption, Kinase-Glo luminescence",SaTrpRS [4],The activity of TrpRS was measured vis ATP hydrolysis using Kinase-Glo® kit
"CC1(C)c2c[nH]c3cccc(c23)S[C@H]1C(=O)O [mCXM, 3-methylchuangxinmycin]",X-ray crystal structure,EcTrpRS [1]; Trp site,The complex structures of these analogues with EcTrpRS and SaTrpRS were solved.
same,X-ray crystal structure,SaTrpRS [2],The complex structures of these analogues with EcTrpRS and SaTrpRS were solved.
same,inhibition,EcTrpRS [3],The inhibitory activity of mCXM against EcTrpRS is lower than that of CXM
same,inhibition,SaTrpRS [5],mCXM exhibits stronger inhibition of SaTrpRS compared to EcTrpRS
"CC1c2c[nH]c3cccc(c23)SC1C(=O)O (centres unmarked) [CXM, chuangxinmycin]",X-ray crystal structure,"EcTrpRS [1]; 2.24 Å, open chain A, Trp site, also ternary with ATP and Mg2+ (1.92 and 2.15 Å)",Chain A exists in an open state and binds to a CXM molecule
same,inhibition,EcTrpRS [3],"Inhibition of EcTrpRS by CXM, dCXM, and mCXM, as measured by ATP hydrolysis assays"
